{
  "source": "patent US20080187508A1",
  "about": "“Treatment of Golmerular Basement Membrane Disease Involving Matrix Metalloproteinase-12” (BOYS TOWN NATIONAL RESEARCH HOSPITAL, priority 2004, published 2008)",
  "key": {"Alport mice": {"tested_on": "Alport mice", "assay": "proteinuria by gel electrophoresis of urine of treated Alport mice", "type": "in vivo, mouse", "settings": "for proteinuria: Alport mice treated from 4 to 7 weeks of age, MMI-270 50 μg/g I.P.; for progression of proteinuria: Alport mice treated from 6 to 7 weeks of age (advanced disease)", "experimental": "Proteinuria was analyzed by gel electrophoresis. (A) One half microliter of urine from control mice (lane 2), MMI 270-treated normal control mice (lane 3), MMI 270-treated Alport mice (injected […] with 50 μg/g of NMI 270) (lane 4), and untreated Alport mice (lane 5) was fractionated on a 10% PAGE gel, stained with Coomassie blue, and destained. Molecular weight markers are shown in lane 1. […] Urine was collected and analyzed as in (A). Lane 1, 6 week old control; lane 2, 6 week old Alport; lane 3, 7 week old control; lanes 4 and 5, 7 week old Alport; lanes 6 and 7, 7 week old Alport treated with MMI-270 from 6 to 7 weeks of age. Molecular weight markers are shown in lane 1. The Alport mouse model has been described (Cosgrove et al. (1996) Genes Dev. 10, 2981-2992). The control mice used were normal for both collagen α3(IV) alleles, and are a product of double heterozygote crosses for the Alport mutation. The use of animals in this study was performed in accordance with an approved institutional IACUC protocol. Extreme care was taken to minimize pain and discomfort suffered by the mice. MMP inhibitors were administered between 4 and 7 weeks of age. All drugs were freshly prepared prior to administration. BAY 129566 was emulsified in suspension with 0.5% carboxymethyl cellulose and 4 mg given once a day by oral gavage. MMI-270 was solubilized in 0.9% saline and administered by I.P. injection (50 μg/g body weight) once a day. To assess the effect of these two compounds on Alport renal disease progression, Alport mice were administered either MMI 270 or BAY 129566 from 4 to 7 weeks of age. The animals were transcardially perfused with PBS and the kidneys harvested. Cryosections were analyzed by immunofluorescence microscopy to assess for the degree of glomerular and tubulointerstitial damage using antibodies specific for collagen IV α1 and α2 chains, and fibronectin."}, "MMP-12": {"molecular_target": "MMP-12 (Homo sapiens, UniProt P39900)", "sequence (P39900 106-470, species assumed)": "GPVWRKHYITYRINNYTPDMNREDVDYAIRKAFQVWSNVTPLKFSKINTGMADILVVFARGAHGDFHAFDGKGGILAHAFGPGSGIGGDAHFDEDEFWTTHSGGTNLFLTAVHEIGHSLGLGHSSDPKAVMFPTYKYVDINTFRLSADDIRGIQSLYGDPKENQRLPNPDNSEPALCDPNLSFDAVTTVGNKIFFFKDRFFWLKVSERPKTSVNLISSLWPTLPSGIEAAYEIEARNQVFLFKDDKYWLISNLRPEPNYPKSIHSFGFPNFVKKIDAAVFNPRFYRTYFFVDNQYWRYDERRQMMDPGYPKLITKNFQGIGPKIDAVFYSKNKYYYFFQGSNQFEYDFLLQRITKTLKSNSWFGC", "settings": "cited from earlier work"}, "MMP-9": {"molecular_target": "MMP-9 (Homo sapiens, UniProt P14780)", "sequence (P14780 94-707, species assumed)": "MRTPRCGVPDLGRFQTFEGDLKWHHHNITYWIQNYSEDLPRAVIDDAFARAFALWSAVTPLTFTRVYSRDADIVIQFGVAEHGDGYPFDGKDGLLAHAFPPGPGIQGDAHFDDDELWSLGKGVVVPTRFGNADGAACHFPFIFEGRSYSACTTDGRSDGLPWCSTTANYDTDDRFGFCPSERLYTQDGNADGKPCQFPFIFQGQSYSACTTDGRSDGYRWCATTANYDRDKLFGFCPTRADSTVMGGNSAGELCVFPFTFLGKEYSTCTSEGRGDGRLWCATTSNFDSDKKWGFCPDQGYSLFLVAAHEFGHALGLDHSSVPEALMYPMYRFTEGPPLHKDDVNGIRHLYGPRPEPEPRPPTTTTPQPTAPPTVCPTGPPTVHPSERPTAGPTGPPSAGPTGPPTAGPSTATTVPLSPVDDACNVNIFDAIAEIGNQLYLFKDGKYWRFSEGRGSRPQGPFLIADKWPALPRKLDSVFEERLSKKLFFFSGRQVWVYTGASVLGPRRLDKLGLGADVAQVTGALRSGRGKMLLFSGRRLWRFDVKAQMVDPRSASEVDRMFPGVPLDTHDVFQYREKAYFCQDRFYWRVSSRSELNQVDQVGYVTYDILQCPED", "settings": "hydrochloride monohydrate; cited from earlier work"}, "[1]": {"settings": "listed as NMI 270, hydrochloride monohydrate"}},
  "note": "“Also recorded” adds a separate entry of the source. Where a name gives a salt, the structure may show the parent alone. Read-outs that look alike come from different tables or passages of the source.",
  "data": [
    {"smiles": "COc1ccc(S(=O)(=O)N(Cc2cccnc2)[C@@H](C(=O)NO)C(C)C)cc1", "note": "[MMI 270, N-hydroxy-2(R)-[(4-methoxysulfonyl)(3-picolyl)amino]-3-methylbutaneamide hydrochloride monohydrate]", "values": [
      {"measurement": "proteinuria", "setting": "Alport mice; hydrochloride monohydrate", "value": "arrests (and may reverse) progressive loss of glomerular function"},
      {"measurement": "proteinuria", "setting": "Alport mice; listed as MMI-270, hydrochloride monohydrate", "value": "dramatic reduction"},
      {"measurement": "proteinuria", "setting": "Alport mice; [1]", "value": "drastically reduced"},
      {"measurement": "progression of proteinuria", "setting": "Alport mice; hydrochloride monohydrate", "value": "arrests the progressive increase in proteinuria; also recorded: arrested"},
      {"measurement": "progression of proteinuria", "setting": "Alport mice; [1]", "value": "arrested"},
      {"measurement": "MMP inhibitory effect, MMP-12", "setting": "MMP-12; hydrochloride monohydrate", "value": "inhibits"},
      {"measurement": "MMP inhibitory effect, MMP-12", "setting": "MMP-12; [1]", "value": "inhibits"},
      {"measurement": "MMP inhibitory effect, MMP-9", "setting": "MMP-9", "value": "inhibits"}
    ]}
  ]
}
